Values joined by “and” are separate entries in the source; they are usually repeats but may differ in a detail not shown here. Identical values can stand only once. After the bases stand the sugars from the 5' end (letter, count) and the backbone: PS all phosphorothioate, else s phosphorothioate and o phosphodiester by linkage. Methylation of C is not given here. e = 2'-O-(2-methoxyethyl) (MOE); d = 2'-deoxy (DNA)
Target: DGAT2
Settings: ASO

Row | Sequence | target mRNA inhibition (HepG2, 2.5 µM) | target mRNA inhibition (HepG2, 10 µM) | target mRNA inhibition (HepG2, 0.12 µM) [%] | target mRNA inhibition (HepG2, 20 µM) [%]
1 | TGTGTGACCTTGGGCAAGTT (sugars e5 d10 e5, PS) | 61% and 57% | 78% and 88% |  | 
2 | AGTCAAACCTAGGTTCAGAC (sugars e5 d10 e5, PS) | 81% | 55% |  | 
3 | CCACTCCCATTCTTTGAAAG (sugars e5 d10 e5, PS) |  |  | 34 | 
4 | AAGGCACCCAGGCCCATGAT (sugars e5 d10 e5, PS) |  |  | 46 | 
5 | ATCCAATGCACCTTGTATTA (sugars e5 d10 e5, PS) | 57% | 93% |  | 
6 | ATAGCATTGCCACTCCCATT (sugars e2 d13 e5, PS) |  |  | 57 | 
7 | ATACCTCCAGACATCAGGTA (sugars e5 d10 e5, PS) |  |  | 50 | 
8 | GCAGGTTCATCTGCCTT (sugars e3 d10 e4, PS) | 54% | 82% |  | 
9 | GTTCTTCCAACCAGTGTTTG (sugars e5 d10 e5, PS) | 47% | 81% |  | 
10 | TCACCTGCTTGTACACTTCA (sugars e5 d10 e5, PS) |  |  | 40 | 
11 | GTGCAAGAGTTACCTCCTCC (sugars e5 d10 e5, PS) | 80% and 78% | 94% and 92% |  | 
12 | CATCAGGTACTCCCTCAACA (sugars e5 d10 e5, PS) |  |  | 35 | 
13 | GCGCGATTCACTGAGGACCT (sugars e5 d10 e5, PS) | 75% | 76% |  | 
14 | GGTCAGCAGGTTGTGTGTCT (sugars e2 d13 e5, PS) |  |  | 45 | 
15 | CCTTTGAAATCCAATGCACC (sugars e5 d10 e5, PS) | 62% | 92% |  | 
16 | AGAAAAAGCAACCAAAGCAC (sugars e5 d10 e5, PS) | 19% | 82% |  | 
17 | TGCGCGATTCACTGAGGACC (sugars e5 d10 e5, PS) | 51% | 87% |  | 
18 | CAGGACCCCGGAGTAGGCGG (sugars e2 d13 e5, PS) |  |  | 76 | 
19 | GCCAATGCCTAGGTCAC (sugars e3 d10 e4, PS) | 85% and 93% | 79% and 93% |  | 
20 | TTCCTCATCTATACAGTGGG (sugars e5 d10 e5, PS) | 57% and 72% and 73% | 89% and 82% and 92% |  | 
21 | AGCTGTGATGACTTCCCAGG (sugars e5 d10 e5, PS) | 52% | 91% |  | 
22 | GGTTATTGCAACCACTAGGA (sugars e5 d10 e5, PS) | 80% | 91% |  | 

Row | Sequence | target mRNA inhibition (HepG2, 2.5 µM) | target mRNA inhibition (HepG2, 10 µM) | target mRNA inhibition (HepG2, 0.12 µM) [%] | target mRNA inhibition (HepG2, 20 µM) [%]
23 | CCTCGAAGATCACCTGCTTG (sugars e5 d10 e5, PS) |  |  | 53 | 
24 | GGTGGTCAGCAGGTTGTGTG (sugars e5 d10 e5, PS) |  |  | 29 | 
25 | GTCTCTCATAATTGCCAGTT (sugars e5 d10 e5, PS) | 53% and 66% | 83% and 87% |  | 
26 | ATCCTGCCAGAGTTATCCTC (sugars e5 d10 e5, PS) | 86% | 77% |  | 
27 | GAATGCACTGAGTTTCTGCT (sugars e5 d10 e5, PS) | 73% and 63% | 92% and 87% |  | 
28 | AGGATGCAGGGTTACCCAGC (sugars e5 d10 e5, PS) | 81% | 71% |  | 
29 | ATAGCATTGCCACTCCCATT (sugars e5 d10 e5, PS) |  |  | 57 | 
30 | GCTTCACCAGGGCCTCCATG (sugars e5 d10 e5, PS) | 34% | 57% | 31 | 80
31 | TCACATGCCTGAGGGCAGCA (sugars e5 d10 e5, PS) | 66% | 86% |  | 
32 | GCATAGCTGAGCAAATCCAT (sugars e5 d10 e5, PS) | 69% | 85% |  | 
33 | CAGGCCACTCCCAGTACAAG (sugars e5 d10 e5, PS) |  |  | 1 | 
34 | CCTCATCTCAGTGCCCAAAG (sugars e5 d10 e5, PS) | 25% | 63% |  | 
35 | CAGGCATGGAGCTCAGAGAC (sugars e2 d13 e5, PS) |  |  | 70 | 
36 | AGCAATGCCAATGCCTAGGT (sugars e5 d10 e5, PS) | 82% | 93% |  | 
37 | GTCTTCACCAGCTGGATGGG (sugars e5 d10 e5, PS) |  |  | 42 | 
38 | GCAGGACCCCGGAGTAGGCG (sugars e5 d10 e5, PS) |  |  | 58 | 
39 | GGTGAATAGCTATGTCTAAA (sugars e5 d10 e5, PS) | 70% and 55% | 91% and 85% |  | 
40 | ATCACAATATATGGGCAAGC (sugars e5 d10 e5, PS) | 83% and 86% | 92% and 94% |  | 
41 | TCTCGAATATCCCTAATAAC (sugars e5 d10 e5, PS) | 34% | 87% |  | 
42 | TGGCTTCCTCAGGGCCCACC (sugars e5 d10 e5, PS) | 79% | 87% |  | 
43 | ATCCATGTCAGAGAGGCTCA (sugars e5 d10 e5, PS) | 66% | 88% |  | 
44 | TTTCCATTTTTTACCCAACC (sugars e5 d10 e5, PS) | 54% | 90% |  | 

Row | Sequence | target mRNA inhibition (HepG2, 2.5 µM) | target mRNA inhibition (HepG2, 10 µM) | target mRNA inhibition (HepG2, 0.12 µM) [%] | target mRNA inhibition (HepG2, 20 µM) [%]
45 | ATGGAGCTCAGAGACTCAGC (sugars e5 d10 e5, PS) |  |  | 78 | 
46 | TGCTGCTCAGAAGGCCAGGC (sugars e5 d10 e5, PS) |  |  | 42 | 
47 | TGGTCAGCAGGTTGTGTGTC (sugars e2 d13 e5, PS) |  |  | 57 | 
48 | CATAGGCCAGGAGGAAGAGT (sugars e5 d10 e5, PS) |  |  | 35 | 
49 | GGAGCTCAGAGACTCAGCCG (sugars e2 d13 e5, PS) |  |  | 65 | 
50 | AGGTAAGGCCGTATGCCTGG (sugars e2 d13 e5, PS) |  |  | 63 | 
51 | CATTGCTCAGATCACTCTGC (sugars e5 d10 e5, PS) | 88% | 74% |  | 
52 | AGGACCCCGGAGTAGGCGGC (sugars e3 d14 e3, PS) |  |  | 76 | 
53 | CCCGGAGTAGGCGGCTATGA (sugars e5 d10 e5, PS) | 60% | 89% |  | 
54 | GGCACAGAAAAGTGAGGCTT (sugars e5 d10 e5, PS) |  |  | 32 | 
55 | GGCAGATCTTCATTACATGA (sugars e5 d10 e5, PS) | 75% and 70% | 80% and 78% |  | 
56 | AGTTTCGGACCCACTGTGAC (sugars e3 d14 e3, PS) |  |  | 60 | 
57 | ATATAGTTCCTGGTGGTCAG (sugars e5 d10 e5, PS) |  |  | 53 | 
58 | CAAGAGGTAAGGCCAAGGAA (sugars e5 d10 e5, PS) | 75% | 90% |  | 
59 | CCCACTGGAGCACTGAGATG (sugars e5 d10 e5, PS) |  |  | 78 | 
60 | GCAGATCTTCATTACATGAT (sugars e5 d10 e5, PS) |  | 86% and 91% |  | 
61 | TAACCACAGCGATAATCACA (sugars e5 d10 e5, PS) | 60% | 93% |  | 
62 | ACAGGACCCACTGGAGCACT (sugars e3 d14 e3, PS) |  |  | 61 | 
63 | TCCCATTCTTTGAAAGCAAA (sugars e5 d10 e5, PS) |  |  | 31 | 
64 | GGACCCACTGGAGCACTGAG (sugars e5 d10 e5, PS) | 14% | 47% | 84 | 73
65 | GCCAGGTGCTCTCATTTCTT (sugars e5 d10 e5, PS) | 63% | 91% |  | 
66 | TCCAATGCACCTTGTATTAA (sugars e5 d10 e5, PS) | 72% and 52% | 92% and 83% |  | 

Row | Sequence | target mRNA inhibition (HepG2, 2.5 µM) | target mRNA inhibition (HepG2, 10 µM) | target mRNA inhibition (HepG2, 0.12 µM) [%] | target mRNA inhibition (HepG2, 20 µM) [%]
67 | AGCCTGCCACAGGGCCCTTT (sugars e5 d10 e5, PS) |  |  | 37 | 
68 | CGCGATTCACTGAGGACCTC (sugars e5 d10 e5, PS) | 73% and 74% | 83% and 93% |  | 
69 | GTCACTGACTCACAACAGCA (sugars e5 d10 e5, PS) | 58% | 92% |  | 
70 | GCATGCTTCCTCCCACTTCA (sugars e5 d10 e5, PS) | 84% | 76% |  | 
71 | CAGGACTTGGTACCTGATTC (sugars e5 d10 e5, PS) |  |  | 35 | 
72 | GGTCTGGGAACAGCAGCATC (sugars e5 d10 e5, PS) | 59% | 79% |  | 
73 | GGTGGGAAACTTGGAAACTT (sugars e5 d10 e5, PS) |  |  | 37 | 
74 | GGGAAAGGTCTTCTCCAGCT (sugars e5 d10 e5, PS) | 86% and 85% | 92% and 91% |  | 
75 | ACCCACTGGAGCACTGAGAT (sugars e3 d14 e3, PS) |  |  | 59 | 
76 | GCTCAGCACTGACATGGTAA (sugars e5 d10 e5, PS) | 79% and 66% | 96% and 92% |  | 
77 | GTCAGCAGGTTGTGTGTCTT (sugars e2 d13 e5, PS) |  |  | 58 | 
78 | CTGGACCCATCGGCCCCAGG (sugars e5 d10 e5, PS) |  |  | 41 | 
79 | TGATAGCATTGCCACTCCCA (sugars e3 d14 e3, PS) |  |  | 66 | 
80 | ACACGCAGACCAGGACAGCT (sugars e5 d10 e5, PS) |  |  | 46 | 
81 | GGCATGGAGCTCAGAGACTC (sugars e3 d14 e3, PS) |  |  | 74 | 
82 | TTGAAAGCAAATAGTCTATG (sugars e5 d10 e5, PS) |  |  | 42 | 
83 | TTCAAAAAGTAGCTACTGCA (sugars e5 d10 e5, PS) |  |  | 47 | 
84 | AGTAGGGCACCAGCCCCCAG (sugars e5 d10 e5, PS) |  |  | 0 | 
85 | AGCCTGGACAAGTCCTGCCC (sugars e3 d14 e3, PS) | 35% and 53% | 84% | 82 | 59
86 | GTAAGCCTCGGTGTCCT (sugars e3 d10 e4, PS) | 62% | 79% |  | 
87 | TCTTTGCTTGCCAGGTGAGC (sugars e5 d10 e5, PS) | 67% | 71% |  | 
88 | TAGAGGTTTACTGCATAGCT (sugars e5 d10 e5, PS) | 84% and 72% | 85% and 92% |  | 

— the OligoGym collection
